The molecules below were run against T1, Prostaglandin G/H synthase 1 (Ovis aries, UniProt P05979) (assay: In vitro inhibitory concentration against ram seminal vesicle prostaglandin G/H synthase 1).
T1 sequence (P05979 whole entry): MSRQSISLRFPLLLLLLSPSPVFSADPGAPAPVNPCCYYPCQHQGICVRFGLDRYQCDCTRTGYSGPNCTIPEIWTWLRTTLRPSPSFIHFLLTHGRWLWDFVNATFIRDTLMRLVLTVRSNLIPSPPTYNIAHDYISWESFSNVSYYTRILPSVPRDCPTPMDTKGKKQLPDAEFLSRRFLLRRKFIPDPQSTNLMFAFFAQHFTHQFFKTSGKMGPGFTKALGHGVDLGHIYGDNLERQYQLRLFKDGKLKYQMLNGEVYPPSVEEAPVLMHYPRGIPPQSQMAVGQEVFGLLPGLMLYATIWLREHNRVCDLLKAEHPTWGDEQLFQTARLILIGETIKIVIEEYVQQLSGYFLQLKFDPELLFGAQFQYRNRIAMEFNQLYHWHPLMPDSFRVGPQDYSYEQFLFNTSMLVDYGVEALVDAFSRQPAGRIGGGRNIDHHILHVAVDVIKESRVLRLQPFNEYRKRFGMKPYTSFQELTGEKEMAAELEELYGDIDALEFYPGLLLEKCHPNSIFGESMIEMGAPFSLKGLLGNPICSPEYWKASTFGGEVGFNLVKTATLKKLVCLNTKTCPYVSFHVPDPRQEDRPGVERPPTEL
Format: tissue-based
For `C[C@H](C(=O)O)c1ccc(-c2ccsc2)cc1`, the IC50 was 45.2 µM.

What follows are molecules tested on Rattus norvegicus (assay: Effective dose for Anti-inflammatory activity was determined by carrageenan induced rat hind paw edema model).
Format: functional
Molecule `COc1ccc2cc([C@H](C)C(=O)O)ccc2c1` [NAPROXEN] has an ED50 of 0.99 mg/kg.
Molecule `CC(C(=O)O)c1ccc(-c2ccsc2)cc1` (configuration not stated) [ATLIPROFEN] has an ED50 of 5.74 mg/kg.
`COc1ccc2cc(C(C)C(=O)O)ccc2c1` (configuration not stated) gave an ED50 of 2.35 mg/kg.
In the case of `C[C@H](C(=O)O)c1ccc(-c2ccsc2)cc1`, the ED50 is reported as 1.85 mg/kg.
`CC(C)Cc1ccc(C(C)C(=O)O)cc1` (configuration not stated) [IBUPROFEN] showed an ED50 of 33.2 mg/kg.
With `CC(C)Cc1ccc([C@H](C)C(=O)O)cc1` [DEXIBUPROFEN] the ED50 was 7.08 mg/kg.

Source: ChEMBL document CHEMBL1147576, “Synthesis and evaluation of S-4-(3-thienyl)phenyl-alpha-methylacetic acid” (Bioorg Med Chem Lett, 2004)
